Test results published in patent US20210337789A1, “Derivatives of m-Guaiacol, Their Preparation and Their Uses” (Universite de Caen Normandie, priority 2018, published 2021).

Test system: KB cells (epidermoid carcinoma)
Assay: In vitro cytotoxicity, cell proliferation test (MTS) on KB cells
Type: cell-based
Settings: Homo sapiens, KB cells, triplicate, 72 hours of exposure, with respect to DMSO control, read-out: percentage of inhibition of cell growth
Experimental: The human cell strain KB (epidermoid carcinoma) was obtained from the NCI (National Cancer Institute) and cultivated in the D-MEM medium added with 10% of foetal bovine serum (Invitrogen) in the presence of penicillin, streptomycin and fungizone in flasks of […] under CO2 at 5%. The cells were deposited on tissue culture microplates with 96 wells and a density of 650 cells/well in 200 μl of medium and treated 24 hours later with compounds of the invention dissolved in DMSO at concentrations going from 0.5 nM to 10 μM using a Biomek 3000 (Beckman-Coulter) automaton. The controls received the same volume of DMSO (1% of final volume). After 72 hours of exposure, the MTS reagent (Celltiter 96Aqueous One solution, Promega) was added and incubated for 3 hours at 37° C.: the absorbance was measured at 490 nm and the results of inhibition of the cell proliferation were calculated according to the ratio [(1−(OD490treated/OD490control))×100].
Results: Cytotoxicity at 10^−5 and 10^−6M on Triplicate KB Cells, Measured after 72 Hours of Exposure.
The percentage of inhibition of cell growth with respect to the cells receiving the same quantity of DMSO is outlined in the table below.

SMILES: COc1cc(O)c(Br)c(Cl)c1F [sr7615]
- inhibition at 10 µM (10^−5 M): 0%
- inhibition at 1 µM (10^−6 M): 0%
